Data from patent US20050192217A1, “Utilization of lipopeptides or lipoproteins in wound treatment and infection prophylaxis” (priority 1998, published 2005).
“And” between values parts separate entries of the source, which are not always exact repeats. Identical values can stand only once. Marks after values point to notes of the source that are not given here. Ends that are not written are not given here. * marks the point of attachment. X1 = 2,3‑bispalmitoyloxy‑(2S)‑propyl, CCCCCCCCCCCCCCCC(=O)OC[C@@H](C*)OC(=O)CCCCCCCCCCCCCCC; Propyl(2R-PamO,3-PamO) = CCCCCCCCCCCCCCCC(=O)OC[C@H](C*)OC(=O)CCCCCCCCCCCCCCC

Experiments:
[1] = tested on: peritoneal leukocytes; assay: Leukocyte inflow into the peritoneal cavity after intraperitoneal injection; format: in vivo, NMRI mice; conditions: for PEC: 72 hours
Procedure: The model of inflow of granulocytes and macrophages into the peritoneal cavity of the mouse served as an example of the effectiveness of synthetic lipopeptides or liposomes into which such lipopeptides were incorporated. NMRI-outbred mice were used as experimental animals in order to exclude genetic peculiarities.
At time 0, the following preparations are injected in a sterile manner and in physiological sodium chloride solution into the peritoncal cavity of the experimental animals. Groups of 6 mice were killed after different times, the peritoneal cavity was washed with 1.2 ml of sterile sodium chloride solution and the number of leukocytes and the leukocyte composition was determined in this cell suspension.
Here, as above, groups of 5 NMRI mice were treated with different amounts of R-MALP-2=S-[2,3-Bispalmitoyloxy-(2R)-propyl]cysteinyl-GNNDESNISFKEK (SEQ ID NO:10) or S-MALP-2=S-[2,3-Bispalmitoyloxy-(2S)-propyl]cysteinyl-GNNDESNISFKEK (SEQ ID NO:8)applied intraperitoneally, and after 3 days the total number as well as the composition of the peritoneal leukocytes were determined.

[2] = tested on: skin sections; assay: Infiltration of cells and proliferation by nucleic acids in skin sections after intracutaneous injection; format: in vivo, C57BLKS/J mice
Procedure: 1. Determination of infiltration of cells and proliferation by measurement of nucleic acids in skin sections after intracutaneous (ic) injection of various MALP-2 doses. On day 1, the back of C57BLKS/J mice was shaved and hair was removed with Veet. On day 0, the animals were anesthetized with metofane; various doses of MALP-2, dissolved in 30 percent 2-propanol, were injected in volumes of up to 10 μL onto the back (ic). Corresponding volumes of the vehicle without MALP-2 were injected onto the back of the same mice at another location. The animals were killed 10 days later, and punched skin sections (diameter 0.8 cm) were taken from the MALP-2 injection sites and from the control injection sites. The skin biopsies were defatted by extraction with methanol, methanol/chloroform (1+1) and chloroform for 15 minutes and were hydrolyzed in 10 N Hcl overnight at 110° C. The samples were dried, taken up in water and clarified by filtration through a sterile filter (0.2 μm); the nucleic acids were determined by measuring the absorption at 260 nm. […] At this dose, the nucleic acid content increased at the MALP-2 injection site by 97±43% in comparison to the corresponding control biopsy (4 animals per group).

[3] = tested on: wounds; assay: Cell colonization and proliferation (nucleic acids) in treated wounds; format: in vivo, C57BLKS/J-m+/+Lepr^db mice (diabetic); conditions: diabetic mice, after 10 days
Procedure: 2. Cell colonization and proliferation were measured in the skin section (0.8 cm diameter) of wounds which were treated with various amounts of MALP-2. For this experiment, (C57BLKS/J-m+/+Lepr^db mice (diabetic) were shaved on the back and hair was removed with Veet. The animals were anesthetized with metofane and their backs were disinfected with Braunol. Then circular skin segments (0.8 cm diameter) were taken from the back of each mouse. The wounds were covered with transparent hydrofilm (Hartmann, Germany); MALP-2 or other vehicles were injected into the wound bed through the film in a volume of 50 μL. After 10 days, the animals were killed; the thin layer of cells, which closes the wound, was sectioned ([…]). The punched samples were hydrolyzed and the nucleic acids determined as before. […] At this dose, 349±24 μg of nucleic acid per biopsy sample were found in the animals treated with MALP-2 while the value was 142±22 μg in the comparison samples (4 animals per group; p<0.0001).

[4] = tested on: skin of NMRI mice; assay: Intracutaneous application in the skin: leukocyte accumulation and new tissue formation; format: in vivo; conditions: 2 μg intracutaneously
Procedure: The following experiment was carried out in order to show the effect of MALP-2 upon intracutaneous application.

[5] = tested on: wounds; assay: Wound-healing experiment; format: in vivo, (diabetic) C57BLKS/J-m+/+-Lepr^db mice; conditions: 5 μg in 100 μL into the wound each day up to day 4, diabetic mice
Procedure: A wound-healing experiment was carried out as follows. On day 1, (diabetic) C57BLKS/J-m+/+-Lepr^db mice were shaved on the back. On day 0, the animals were anesthetized with ether and the backs were disinfected with Braunoderm. After that, circular regions (1.3 cm diameter) were cut from the skin of the back of each mouse. The edges of the wound were treated with benzoin tincture; then 100 μL of the MALP-2 preparation or of the vehicles were introduced into each wound (10 mice for each treatment group). The wounds were covered with transparent patches of Tegaderm. Each day, up to day 4, 100 μL of the preparation (content 5 μg of MALP-2) or vehicle preparation was injected into the wound bed through the Tegaderm patches or placed in the wound when the bandage was changed. The mice were kept individually in separate cages. In order to avoid infections, baytril (Bayer) was introduced in the drinking water (50 mg/L of enrofloxacin). The bandages were changed once a week under ether anesthesia, and the wound edges were recorded on microscope slides. The areas shown were determined with a standard CCD camera using Scionlmage software. The wounds were checked visually for infections; liquid samples from obviously infected wounds were tested on blood agar plates. Mice with infected wounds were removed from further analyses.

[6] = tested on: abdominal sepsis; assay: Colon ascendens stent peritonitis model, survival after pretreatment; format: in vivo, C57BL/6 mice; conditions: 2 μg i.p. two days before the surgical intervention
Procedure: “Colon ascendens stent peritonitis” is a new model for abdominal sepsis, which may follow surgical intervention [Zantl et al., Infekt. Immun., 66:2300-2309 (1998)]. The following experiments were carried out in order to evaluate the ability of MALP-2 to increase the survival rate in this model. Groups of 12 to 18 C57BL/6 mice were injected intraperitoneally with 2 μg of S-MALP-2 in 200 μL of physiological sodium chloride solution or with the same volume of physiological sodium chloride solution either 2 or 4 days before surgical intervention. The surgical intervention was carried out under ether anesthesia. The abdomen was disinfected with 70% ethanol and then opened by section in the middle line (1 cm). A venous catheter (16 gauge) was inserted into the lumen of the […] colon and secured with two stitches using Ethilon thread (7/0). Then the inner needle of the stent was removed, the catheter was shortened to a length of a few millimeters and a small drop of feces was pressed out from the catheter. The peritoneal cavity was rinsed with 0.5 Ml of sodium chloride solution before closing the abdomen. Among the mice with the control, sodium chloride solution (18 per group), none lived longer than 90 h. […]

With “S-[2,3-bispalmitoyloxy-(2RS)-propyl]cysteinyl-GNNDESNISFKEK [MALP-2]” the Peritoneal cells ([1]; 9 μg i.p., after 72 hours, groups of 6 animals, mean) was 11.2 ± 3.1^b ×10^6, the “increase of nucleic acid content at the injection site in comparison to the control biopsy” value ([2]; 5 μg per injection site ic, 10 days, 4 animals per group) was 97±43% and the “optimal dose per injection site” value ([2]; intracutaneous injection, skin biopsy 10 days later) was 5 µg. The “nucleic acid per biopsy sample” value ([3]; 5 μg per wound, 4 animals per group) was 349 ± 24 µg and the “optimal dose per wound” value ([3]; injected into the wound bed) was 5 µg.
For “S-[2,3-Bispalmitoyloxy-(2R)-propyl]cysteinyl-GNNDESNISFKEK (C(Propyl(2R-PamO,3-PamO))GNNDESNISFKEK) [R-MALP-2, reference compound]”, the PEC ([1]; 10 μg i.p., group mean φ of 5) was 8.64 ± 3 ×10^6 and the PEC ([1]; 10 μg i.p., individual animals A-E) was 11.1 ×10^6 and 4.05 ×10^6 and 11.4 ×10^6 and 7.65 ×10^6 and 9 ×10^6.
In the case of “S-[2,3-Bispalmitoyloxy-(2S)-propyl]cysteinyl-GNNDESNISFKEK (C(X1)GNNDESNISFKEK) [S-MALP-2]”, the PEC ([1]; 1 μg i.p., group mean φ of 5) is reported as 10.2 ± 2.2^a ×10^6, the PEC ([1]; 1 μg i.p., individual animals A-E) is reported as 9.1 ×10^6 and 10.8 ×10^6 and 9.35 ×10^6 and 13.7 ×10^6 and 7.9 ×10^6 and the PEC ([1]; 5 μg i.p., group mean φ of 5) is reported as 14.5 ± 1.9^a,b ×10^6. For the same substance, the PEC ([1]; 5 μg i.p., individual animals A-E) was 14.4 ×10^6 and 15.2 ×10^6 and 17.3 ×10^6 and 13.1 ×10^6 and 12.5 ×10^6, the “in vivo effect on peritoneal leukocytes, S-MALP-2 compared with R-MALP-2” value ([1]; i.p., after 3 days, groups of 5 NMRI mice) was “clearly more effective” and the “accumulation of leukocytes at the injection site” value ([4]; after 3 days) was “a clear accumulation of leukocytes is observed”. For the same substance, the “formation of new tissue and vessels” value ([4]; after 6 days) was “new tissue and vessels are formed”, the “wound healing (wound area, FIG. 7)” value [5] was “significant acceleration of wound healing” and the “animals surviving for 150 h or longer” value [6] was 4 out of 12.
